Assay [1] concerns Jurkat. The experiment in a line: Cell cycle arrest in human Jurkat cells assessed as accumulation at G2/M phase at 6.25 uM after 48 hrs. The assay is classed as functional.
Assay [2] has as its system PA-1. The experiment in a line: Cytotoxicity against human PA1 cells after 72 hrs by Trypan blue assay. The assay is classed as functional.
Assay [3] has as its system PA-1. The experiment in a line: Stimulation of p53 oncoprotein expression in human PA1 cells at 1.6 uM. The assay is classed as functional.
Assay [4] deals with Jurkat. The experiment in a line: Cell cycle arrest in human Jurkat cells assessed as accumulation at G0/G1 phase at 6.25 uM after 48 hrs. The assay is classed as functional.
In assay [5] the test system is A2780. The experiment in a line: Induction of apoptosis in human A2780 cells by DAPI assay. The assay is classed as functional.
Assay [6] concerns MDA-MB-231. Put plainly: Antiproliferative activity against human MDA-MB-231 cells by MTT assay. The assay is classed as functional, cell-based.
For assay [7], the system named is A549. Put plainly: Cell cycle arrest in human A549 cells assessed as accumulation at G0/G1 phase at 6.25 uM after 48 hrs. The assay is classed as functional.
In assay [8] the test system is HGC-27. The experiment in a line: Antiproliferative activity against human HGC27 cells by MTT assay. The assay is classed as functional, cell-based.
Assay [9] deals with P388. The experiment in a line: Cytotoxicity against mouse P388 cells after 72 hrs by Trypan blue assay. The assay is classed as functional.
The nature of assay [10]: Antiproliferative activity against human H1299 cells by MTT assay. The assay is classed as functional, cell-based. The following applies: NCI-H1299.
For assay [11], the system named is A549. The experiment in a line: Cell cycle arrest in human A549 cells assessed as accumulation at G0/G1 phase at 1.56 uM after 48 hrs. The assay is classed as functional.
Assay [12] relates to Jurkat. The experiment in a line: Cell cycle arrest in human Jurkat cells assessed as accumulation at G2/M phase at 25 uM after 48 hrs. The assay is classed as functional.
Assay [13] relates to A549. Put plainly: Cytotoxicity against human A549 cells after 72 hrs by Trypan blue assay. The assay is classed as functional.
Assay [14] has as its system A549. The experiment in a line: Cell cycle arrest in human A549 cells assessed as accumulation at G2/M phase at 25 uM after 48 hrs. The assay is classed as functional.
Assay [15] concerns Jurkat. The experiment in a line: Cell cycle arrest in human Jurkat cells assessed as accumulation at S phase at 6.25 uM after 48 hrs. The assay is classed as functional.
The test system of assay [16] is HCT-8. Put plainly: Induction of apoptosis in human HCT8 cells by DAPI assay. The assay is classed as functional.
Another assay relates to NCI-H1299. The experiment in a line: Induction of apoptosis in human H1299 cells by DAPI assay. The assay is classed as functional.
Assay [17] deals with HGC-27. Put plainly: Cytotoxicity against human HGC27 cells after 72 hrs by Trypan blue assay. The assay is classed as functional.
Assay [18] deals with Jurkat. Put plainly: Cell cycle arrest in human Jurkat cells assessed as accumulation at G2/M phase at 1.56 uM after 48 hrs. The assay is classed as functional.
Assay [19] can be described thus: Cytotoxicity against human H1299 cells after 72 hrs by Trypan blue assay. The assay is classed as functional, NCI-H1299.
Assay [20] deals with Jurkat. The experiment in a line: Cell cycle arrest in human Jurkat cells assessed as accumulation at G0/G1 phase at 1.56 uM after 48 hrs. The assay is classed as functional.
Assay [21] relates to A549. Put plainly: Cell cycle arrest in human A549 cells assessed as accumulation at S phase at 1.56 uM after 48 hrs. The assay is classed as functional.
The subject of assay [22] is A549. Put plainly: Induction of apoptosis in human A549 cells by DAPI assay. The assay is classed as functional.
Assay [23] deals with A549. The experiment in a line: Cell cycle arrest in human A549 cells assessed as accumulation at S phase at 25 uM after 48 hrs. The assay is classed as functional.
Assay [24] concerns P388. The experiment in a line: Effect on interstrand cross linking in DNA in mouse P388 cells at 0.1 uM. The assay is classed as functional.
Assay [25] relates to HCT-8. Put plainly: Cytotoxicity against human HCT8 cells after 72 hrs by Trypan blue assay. The assay is classed as functional.
Assay [26] has as its system Jurkat. The experiment in a line: Induction of apoptosis in human Jurkat cells by DAPI assay. The assay is classed as functional.
Assay [27] relates to A549. Put plainly: Antiproliferative activity against human A549 cells by MTT assay. The assay is classed as functional, cell-based.
Assay [28] deals with Jurkat. Put plainly: Cell cycle arrest in human Jurkat cells assessed as accumulation at G0/G1 phase at 25 uM after 48 hrs. The assay is classed as functional.
Assay [29] relates to A2780. Put plainly: Antiproliferative activity against human A2780 cells by MTT assay. The assay is classed as functional, cell-based.
Assay [30] concerns P388. Put plainly: Effect on interstrand cross linking in DNA in mouse P388 cells at 1 uM. The assay is classed as functional.
The test system of assay [31] is MDA-MB-231. The experiment in a line: Stimulation of p53 oncoprotein expression in human MDA-MB-231 cells at 0.9 uM. The assay is classed as functional.
Assay [32] has as its system Jurkat. The experiment in a line: Cell cycle arrest in human Jurkat cells assessed as accumulation at S phase at 25 uM after 48 hrs. The assay is classed as functional.
Assay [33] deals with Jurkat. The experiment in a line: Cytotoxicity against human Jurkat cells after 72 hrs by Trypan blue assay. The assay is classed as functional.
The subject of assay [34] is Jurkat. Put plainly: Cell cycle arrest in human Jurkat cells assessed as accumulation at S phase at 1.56 uM after 48 hrs. The assay is classed as functional.
The test system of assay [35] is A549. Put plainly: Cell cycle arrest in human A549 cells assessed as accumulation at G0/G1 phase at 25 uM after 48 hrs. The assay is classed as functional.
Assay [36] has as its system P388. The experiment in a line: Antiproliferative activity against mouse P388 cells by MTT assay. The assay is classed as functional, cell-based.
In assay [37] the test system is MDA-MB-231. The experiment in a line: Cytotoxicity against human MDA-MB-231 cells after 72 hrs by Trypan blue assay. The assay is classed as functional.
The test system of assay [38] is P388. Put plainly: Induction of apoptosis in mouse P388 cells by DAPI assay. The assay is classed as functional.
The subject of assay [39] is A549. Put plainly: Stimulation of p53 oncoprotein expression in human A549 cells at 6 uM after 72 hrs. The assay is classed as functional.
Assay [40] deals with PA-1. Put plainly: Antiproliferative activity against human PA1 cells by MTT assay. The assay is classed as functional, cell-based.
The subject of assay [41] is A549. Put plainly: Cell cycle arrest in human A549 cells assessed as accumulation at S phase at 6.25 uM after 48 hrs. The assay is classed as functional.
Assay [42] deals with A549. Put plainly: Cell cycle arrest in human A549 cells assessed as accumulation at G2/M phase at 1.56 uM after 48 hrs. The assay is classed as functional.
The subject of assay [43] is HGC-27. The experiment in a line: Induction of apoptosis in human HGC27 cells by DAPI assay. The assay is classed as functional.
Assay [44] deals with Jurkat. The experiment in a line: Antiproliferative activity against human Jurkat cells by MTT assay. The assay is classed as functional, cell-based.
For assay [45], the system named is MDA-MB-231. The experiment in a line: Induction of apoptosis in human MDA-MB-231 cells by DAPI assay. The assay is classed as functional.
Assay [46] relates to A2780. Put plainly: Cytotoxicity against human A2780 cells after 72 hrs by Trypan blue assay. The assay is classed as functional.
Assay [47] has as its system A549. The experiment in a line: Cell cycle arrest in human A549 cells assessed as accumulation at G2/M phase at 6.25 uM after 48 hrs. The assay is classed as functional.
Assay [48] relates to PA-1. The experiment in a line: Induction of apoptosis in human PA1 cells by DAPI assay. The assay is classed as functional.
Assay [49] deals with HCT-8. The experiment in a line: Antiproliferative activity against human HCT8 cells by MTT assay. The assay is classed as functional, cell-based.

Consider three molecules from ChEMBL document CHEMBL1140763, “Design, synthesis, and in vitro evaluation of new naphthylnitrobutadienes with potential antiproliferative activity: toward a structure/activity correlation” (Bioorg Med Chem, 2008).

For the molecule `COC(=O)/C(=C/C(=C\c1cccc2ccccc12)[N+](=O)[O-])SC`, the Activity in the assay on Jurkat [1] was 20.4%; with PA-1 [2], 22%; in the assay with PA-1 [3], 2%; in the assay with Jurkat [4] it was 41.3%; in the assay with A2780 [5], 25%; in the assay on A549 [7], 49%. The Activity in the assay on P388 [9] is reported as 75%; with A549 [11], 46.5%; with Jurkat [12], 26.4%; with A549 [13], 46%; in the assay on A549 [14], 36.5%; with Jurkat [15] it was 38.3%. The Activity was 5% with HCT-8 [16]; 2% with NCI-H1299; 21% in the assay with HGC-27 [17]; 18.6% with Jurkat [18]; 14% in [19]; 31.1% in the assay on Jurkat [20]. Also, the Activity with A549 [21] is on record as 36.9%; in the assay with A549 [22], 60%; in the assay on A549 [23], 22.5%; with P388 [24], 1.7%; in the assay with HCT-8 [25], 10%; in the assay with Jurkat [26] it was 14%. Also, the Activity with Jurkat [28] came to 51.2%; with P388 [30], 3.5%; in the assay on MDA-MB-231 [31], 2%; in the assay with Jurkat [32], 22.4%; in the assay on Jurkat [33], 67%; in the assay with Jurkat [34], 50.3%. Moreover, the Activity with A549 [35] worked out at 41.2%; in the assay with MDA-MB-231 [37] it was 16%; in the assay on P388 [38], 27%; in the assay with A549 [39], 2%; in the assay on A549 [41], 33%; with A549 [42], 16.6%. The Activity in the assay with HGC-27 [43] was 7%; in the assay on MDA-MB-231 [45] it was 4%; in the assay on A2780 [46], 55%; in the assay with A549 [47], 18%; with PA-1 [48] it was 11%. Moreover, the IC50 in the assay with MDA-MB-231 [6] was determined as 0.9 µM; with HGC-27 [8], 2.1 µM; in assay [10], 2800 nM; in the assay with A549 [27], 6 µM; in the assay with A2780 [29], 2100 nM; in the assay on P388 [36], 1400 nM. In addition, the IC50 came out at 1.6 µM in the assay with PA-1 [40], 3.2 µM in the assay on Jurkat [44] and 12.7 µM with HCT-8 [49].
Turning to `O=[N+]([O-])C(=C/c1cccc2ccccc12)/C(=C\c1cccc2ccccc12)[N+](=O)[O-]`, the IC50 in the assay with MDA-MB-231 [6] stood at 9.3 µM; with HGC-27 [8], 9 µM; in the assay on A549 [27] it was 14.3 µM; with A2780 [29], 2000 nM; in the assay with P388 [36], 2100 nM; in the assay on PA-1 [40], 3.6 µM. Also, the IC50 in the assay with Jurkat [44] worked out at 2.8 µM; in the assay on HCT-8 [49], 9.8 µM.
Regarding `O=C(O)c1ccc(/C=C(\C(=C/c2ccc(C(=O)O)c3ccccc23)[N+](=O)[O-])[N+](=O)[O-])c2ccccc12`, the IC50 was determined as 360000 nM in the assay with A2780 [29], 145000 nM with P388 [36], 129 µM in the assay with PA-1 [40] and 172 µM in the assay on Jurkat [44].
